Source: ChEMBL document CHEMBL4265923, “In vitro and in vivo characterization of a novel, highly potent p53-MDM2 inhibitor” (Bioorg Med Chem Lett, 2018)

Tests used:
[1] = Intrinsic clearance in rat liver microsomes; format: ADME, microsome
[2] = system: SJSA-1; assay: Antiproliferative activity against human SJSA1 cells after 72 hrs by YO-PRO-1 iodide staining-based assay; format: functional; settings: SJSA-1, 72 h
[3] = Half life in rat liver microsomes; format: ADME, microsome
[4] = Intrinsic clearance in human liver microsomes; format: ADME, microsome
[5] = Intrinsic clearance in mouse liver microsomes; format: ADME, microsome
[6] = system: Rattus norvegicus; assay: Upregulation of PUMA mRNA expression level in po dosed nude rat tumor xenografted with human SJSA1 cells by RT-PCR method
[7] = Volume of distribution at steady state in Sprague-Dawley rat at 1 mg/kg, iv; format: ADME, organism-based; settings: in vivo, read-out: Vdss
[8] = Half life in monkey liver microsomes; format: ADME, Macaca mulatta, microsome; settings: rhesus monkey
[9] = Oral bioavailability in Sprague-Dawley rat at 3 mg/kg; format: ADME, organism-based; settings: in vivo
[10] = Fraction absorbed of compound by PAMPA; format: ADME
[11] = system: SJSA-1; assay: Antitumor activity against human SJSA1 cells xenografted in nude rat assessed as reduction in tumor volume at 1 mg/kg, po qd for 14 days; format: functional; design: scale not given: the % may be the effect or the level left
[12] = system: SJSA-1; assay: Antitumor activity against human SJSA1 cells xenografted in po dosed nude rat assessed as tumor growth inhibition administered once daily for 14 days; format: functional, organism-based
[13] = system: SJSA-1; assay: Antitumor activity against human SJSA1 cells xenografted in nude rat assessed as tumor regression at 3 mg/kg, po qd for 14 days; format: functional
[14] = system: Rattus norvegicus; assay: Dose normalized Cmax in Sprague-Dawley rat at 3 mg/kg, po; format: ADME, organism-based; settings: in vivo
[15] = Half life in human liver microsomes; format: ADME, microsome
[16] = Half life in mouse liver microsomes; format: ADME, microsome
[17] = system: Rattus norvegicus; assay: Dose normalized AUC in Sprague-Dawley rat at 1 mg/kg, iv; format: ADME, organism-based; settings: in vivo
[18] = Clearance in Sprague-Dawley rat at 1 mg/kg, iv; format: ADME, organism-based; settings: in vivo
[19] = Intrinsic clearance in monkey liver microsomes; format: ADME, Macaca mulatta, microsome; settings: rhesus monkey
[20] = system: Rattus norvegicus; assay: Upregulation of MDM2 mRNA expression level in po dosed nude rat tumor xenografted with human SJSA1 cells by RT-PCR method
[21] = system: Rattus norvegicus; assay: Dose normalized AUC in Sprague-Dawley rat at 3 mg/kg, po; format: ADME, organism-based; settings: in vivo
[22] = system: Rattus norvegicus; assay: Toxicity in nude rat xenografted with human SJSA1 cells assessed as increase in body weight at 1 to 5 mg/kg, po qd for 14 days; format: organism-based; settings: in vivo, 336 h
[23] = Half life in dog liver microsomes; format: ADME, Canis lupus familiaris, microsome
[24] = Tmax in nude rat xenografted with human SJSA1 cells at 1 to 5 mg/kg, po qd; format: ADME, organism-based; settings: in vivo
[25] = Half life in Sprague-Dawley rat at 1 mg/kg, iv; format: ADME, organism-based; settings: in vivo
[26] = Tmax in Sprague-Dawley rat at 3 mg/kg, po; format: ADME, organism-based; settings: in vivo
[27] = system: Rattus norvegicus; assay: Upregulation of p21 mRNA expression level in po dosed nude rat tumor xenografted with human SJSA1 cells by RT-PCR method
[28] = system: SJSA-1; assay: Antitumor activity against human SJSA1 cells xenografted in nude rat assessed as tumor regression at 5 mg/kg, po qd for 14 days; format: functional
[29] = Intrinsic clearance in dog liver microsomes; format: ADME, Canis lupus familiaris, microsome

With `COc1ccccc1-c1nc2c(n1C(C)C)[C@H](c1ccc(Cl)cc1C)N(c1cc(Cl)ccc1C)C2=O` as the molecule, how does the CLint [1] read?
The CLint was 385 µL/min/mg.

And the GI50 [2]?
Its GI50 is 62 to 64 nM.

What about the half-life [3] of the same molecule?
The half-life was 3.6 min.

Which CLint [1] does the source give for `COc1ncncc1-c1nc2c(n1C(C)C)C(c1ccc(Cl)cc1C)N(c1cc(Cl)ccc1C)C2=O` (racemic) here?
The CLint was 178 µL/min/mg.

What about the GI50 [2] of the same molecule?
Its GI50 is 111 nM.

And the half-life [3]?
The half-life was 8 min.

For `COc1cccc(F)c1-c1nc2c(n1C(C)C)C(c1ccc(Cl)cc1C)N(c1cc(Cl)ccc1C)C2=O` (racemic), which CLint [1] is on record?
The CLint was 450 µL/min/mg.

What about the GI50 [2] of the same molecule?
Its GI50 is 276 nM.

What about the half-life [3] of the same molecule?
Its half-life is 3.3 min.

Which GI50 [2] does the source give for `COc1ccccc1-c1cc2c(n1C(C)C)C(c1ccc(Cl)cc1C)N(c1cc(Cl)ccc1C)C2=O` (configuration not stated) here?
The GI50 was 216 nM.

Which CLH [4] does the source give for `COc1ccccc1-n1nc2c(c1C(C)C)[C@H](c1ccc(Cl)cc1C)N(c1cc(Cl)ccc1C)C2=O` here?
The CLH was 115 µL/min/mg.

And the CLint [1]?
Its CLint is 385 µL/min/mg.

And the CLH [5]?
The CLH was 495 µL/min/mg.

For `COc1ncc(-c2nc3c(n2C(C)C)C(c2ccc(Cl)cc2C)N(c2cc(Cl)ccc2C)C3=O)c(OC)n1` (racemic), which CLint [1] is on record?
The CLint was 47 µL/min/mg.

What about the GI50 [2] of the same molecule?
Its GI50 is 26 nM.

And the half-life [3]?
Its half-life is 30 min.

Which results are given for `COc1ccc(F)cc1-c1nc2c(n1C(C)C)C(c1ccc(Cl)cc1C)N(c1cc(Cl)ccc1C)C2=O` (racemic)?
CLint [1]: 460 µL/min/mg; GI50 [2]: 228 nM; half-life [3]: 3.3 min

With `COc1ncc(-c2nc3c(n2C(C)C)[C@H](c2ccc(Cl)cc2C)N(c2cc(Cl)ccc2C)C3=O)c(OC)n1` as the molecule, how does the Activity [6] read?
Its Activity is “Dose-dependent effect”.

And the Vd [7]?
The Vd was 4.4 L/kg.

What about the half-life [8] of the same molecule?
Its half-life is 81 min.

What about the bioavailability [9] of the same molecule?
Its bioavailability is 67%.

And the Fa [10]?
The Fa was 99%.

What about the Activity [11] of the same molecule?
Its Activity is 40%.

What about the TGI [12] of the same molecule?
The TGI was “Dose-dependent effect”.

And the Activity [13]?
The Activity was 32%.

What about the Cmax/dose [14] of the same molecule?
The Cmax/dose was 75 nM/(mg/kg).

What about the CLH [4] of the same molecule?
Its CLH is 72 µL/min/mg.

And the half-life [15]?
Its half-life is 17 min.

What about the half-life [16] of the same molecule?
Its half-life is 39 min.

And the AUC/dose [17]?
The AUC/dose was 1080 nM·h.

And the clearance [18]?
Its clearance is 32 mL/min/kg.

What about the CLint [1] of the same molecule?
Its CLint is 35 µL/min/mg.

And the CLH [19]?
The CLH was 20 µL/min/mg.

And the Activity [20]?
The Activity was “Dose-dependent effect”.

What about the AUC/dose [21] of the same molecule?
The AUC/dose was 719 nM·h.

And the Activity [22]?
Its Activity is “Non-Toxic”.

And the CLH [5]?
Its CLH is 36 µL/min/mg.

What about the half-life [23] of the same molecule?
The half-life was 40 min.

What about the Tmax [24] of the same molecule?
Its Tmax is 180 min.

What about the half-life [25] of the same molecule?
Its half-life is 108 min.

What about the GI50 [2] of the same molecule?
The GI50 was 11 nM.

What about the Tmax [26] of the same molecule?
Its Tmax is 120 min.

What about the Activity [27] of the same molecule?
The Activity was “Dose-dependent effect”.

What about the Activity [28] of the same molecule?
Its Activity is 98%.

And the CLH [29]?
Its CLH is 35 µL/min/mg.

And the half-life [3]?
Its half-life is 39 min.

With `COc1ccncc1-c1nc2c(n1C(C)C)[C@H](c1ccc(Cl)cc1C)N(c1cc(Cl)ccc1C)C2=O` as the molecule, how does the CLint [1] read?
Its CLint is 117 µL/min/mg.

What about the GI50 [2] of the same molecule?
The GI50 was 345 nM.

And the half-life [3]?
Its half-life is 12 min.

For `COc1ncc(-c2nc3c(n2C(C)C)[C@@H](c2ccc(Cl)cc2C)N(c2cc(Cl)ccc2C)C3=O)c(OC)n1`, which CLint [1] is on record?
Its CLint is 25 µL/min/mg.

What about the GI50 [2] of the same molecule?
The GI50 was 1000 nM.

What about the half-life [3] of the same molecule?
Its half-life is 56 min.

Which CLint [1] does the source give for `COc1ccc(-c2nc3c(n2C(C)C)C(c2ccc(Cl)cc2C)N(c2cc(Cl)ccc2C)C3=O)c(OC)n1` (racemic) here?
Its CLint is 69 µL/min/mg.

What about the GI50 [2] of the same molecule?
The GI50 was 186 nM.

And the half-life [3]?
Its half-life is 20 min.
